The results in this text go back to patent USRE41149E1, “Optically active pyridonecarboxylic acid derivatives” (Daiichi Sankyo Company, Limited, priority 1988, dated 2010).

≈ marks a conversion by molar mass, not a printed value. Counter-ions that a name gives are not always drawn.

Holding throughout (test): Antimicrobial activity (MIC), standard method of Nippon Kagakuryoho Gakkai
Format in all cases: cell-based

For assay [1], the system named is E. coli., NIHJ. Conditions: for MIC: Escherichia coli. As to the method: (§1) Antimicrobial activity of the optically active compounds prepared in Examples was evaluated in accordance with the standard method specified by Nippon […], and results obtained are shown in Table 1 which precedes the claims herein in terms of minimum inhibitory concentration (MIC: […]).

In assay [2] the test system is Pr. vulgaris, 08601. The following applies: for MIC: Proteus vulgaris. As to the method: as §1
Assay [3] concerns Ps. aeruginosa, 32104. The following applies: for Antimicrobial activity (MIC): Ps. aeruginosa; for MIC: Pseudomonas aeruginosa, 32104, Ps. aeruginosa. The procedure:
as §1

The test system of assay [4] is Ps. aeruginosa, 32121. Conditions: for Antimicrobial activity (MIC): Ps. aeruginosa; for MIC: Pseudomonas aeruginosa, 32121, Ps. aeruginosa. The procedure:
as §1

Assay [5] relates to S. aureus, 209 P. Conditions: for MIC: Staphylococcus aureus. As to the method: as §1
Assay [6] relates to S. epidermidis, 56500. The following applies: for Antimicrobial activity (MIC): S. epidermidis; for MIC: Staphylococcus epidermidis, 56500, S. epidermidis. The procedure: as §1
Assay [7] has as its system Ser. marcescens, 10100. The following applies: for Antimicrobial activity (MIC): Ser. marcescens; for MIC: Serratia marcescens, 10100, Ser. marcescens. As to the method: as §1
Assay [8] deals with Str. faecalis, ATCC 19433. The following applies: for Antimicrobial activity (MIC): Str. faecalis; for MIC: Enterococcus faecalis, ATCC19433, Str. faecalis. The procedure: as §1

By MIC is commonly meant the lowest concentration found to suppress growth. A lower MIC goes with greater potency. For `NC1CN(c2c(F)cc3c(=O)c(C(=O)O)cn(C4CC4F)c3c2Cl)CC12CC2` (centres unmarked) [Compound 26ba], the MIC in assay [1] and in assay [2] was under 0.1 µg/mL each time. In addition, the “Antimicrobial activity (MIC)” value is 0.20 µg/mL in assay [3]; 0.10 µg/mL in assay [4]; under 0.1 µg/mL in assay [5]; 0.20 µg/mL in assay [6]; under 0.1 µg/mL in assay [7]; 0.39 µg/mL in assay [8].
As for `NC1CN(c2c(F)cc3c(=O)c(C(=O)O)cn([C@@H]4C[C@@H]4F)c3c2Cl)CC12CCC2` (relative stereo) [Compound 58b, (−)-7-(8-amino-6-azaspiro[3.4]octane-6-yl)-8-chloro-6-fluoro-1-(1,2-cis-2-fluoro-1-cyclopropyl)-1,4-dihydro-4-oxoquinoline-3-carboxylic acid], the “Antimicrobial activity (MIC)” value in assay [1] was under 0.1 µg/mL; in assay [2] it was under 0.1 µg/mL; in assay [3], 0.10 µg/mL; in assay [4], under 0.1 µg/mL; in assay [5], under 0.1 µg/mL; in assay [6] it was under 0.1 µg/mL. In addition, the “Antimicrobial activity (MIC)” value in assay [7] and in assay [8] was under 0.1 µg/mL each time.
`Nc1c(F)c(N2CC(N)C3(CC3)C2)c(F)c2c1c(=O)c(C(=O)O)cn2[C@@H]1C[C@@H]1F` (relative stereo) [Compound 56b, 5-Amino-7-(7-amino-5-azaspiro[2,4]heptan-5-yl)-6,8-difluoro-1-(1,2-cis-2-fluoro-1-cyclopropyl) 4-oxo-1,4-dihydroquinoline-3-carboxylic acid]: the “Antimicrobial activity (MIC)” value in assay [1], in assay [2], in assay [3], in assay [4], in assay [5] and in assay [6] was under 0.1 µg/mL throughout. In addition, the “Antimicrobial activity (MIC)” value in assay [7] was under 0.1 µg/mL; in assay [8] it was 0.10 µg/mL.
In the case of `NC1CN(c2c(F)cc3c(=O)c(C(=O)O)cn(C4CC4F)c3c2Cl)CC12CC2` (single isomer, unassigned) [Compound 26aa], the “Antimicrobial activity (MIC)” value in assay [1] and in assay [2] was under 0.1 µg/mL each time. Besides, the MIC in assay [3] was 0.39 µg/mL (≈ 0.952 µM); in assay [4], 0.1 µg/mL (≈ 0.244 µM); in assay [5], under 0.1 µg/mL; in assay [6], 0.2 µg/mL (≈ 0.488 µM); in assay [7], 0.1 µg/mL (≈ 0.244 µM); in assay [8], 0.39 µg/mL (≈ 0.952 µM).
Regarding “(+)-5-Amino-7-[3-(S)-amino-1-pyrrolidinyl]-6,8-difluoro-1-(1,2-cis-2-fluoro-1-cyclopropyl)-4-oxo-1,4-dihydroquinoline-3-carboxylic acid [Compound 18b]”, the “Antimicrobial activity (MIC)” value in assay [1], in assay [2], in assay [3], in assay [4], in assay [5] and in assay [6] was under 0.1 µg/mL throughout. For the same compound, the results for the “Antimicrobial activity (MIC)” value in assay [7] and in assay [8] were under 0.1 µg/mL and 0.10 µg/mL, respectively.
Consider “(+)-7-[3-(S)-Amino-1-pyrrolidinyl]-8-chloro-6-fluoro-1-(1,2-cis-2-fluoro-1-cyclopropyl)-4-oxo-1,4-dihydroquinoline-3-carboxylic acid [Compound 13a]”, for which the “Antimicrobial activity (MIC)” value in assay [1], in assay [2], in assay [3], in assay [4], in assay [5] and in assay [6] was under 0.1 µg/mL in each case. Moreover, the “Antimicrobial activity (MIC)” value in assay [7] was under 0.1 µg/mL; in assay [8], 0.20 µg/mL.
`N[C@H]1CCN(c2cc3c(cc2F)c(=O)c(C(=O)O)cn3[C@@H]2C[C@@H]2F)C1` (relative stereo) [Compound 9b, 7-[3-(S)-Amino-1-pyrrolidinyl]-6-fluoro-1-(1,2-cis-2-fluorocyclopropyl)-4-oxo-1,4-dihydroquinoline-3-carboxylic acid]: the “Antimicrobial activity (MIC)” value was under 0.1 µg/mL in assay [1]; under 0.1 µg/mL in assay [2]; 0.10 µg/mL in assay [3]; under 0.1 µg/mL in assay [4]; under 0.1 µg/mL in assay [5]; 0.39 µg/mL in assay [6]. Also, the “Antimicrobial activity (MIC)” value in assay [7] was 0.10 µg/mL; in assay [8] it was 0.79 µg/mL.
On to `Cc1c(N2CC[C@@H]([C@H](C)N)C2)c(F)cc2c(=O)c(C(=O)O)cn(C3CC3F)c12` (single isomer, unassigned; (-)) [Compound 54b, hydrochloride], for which the MIC in assay [1] is under 0.1 µg/mL; in assay [2], under 0.1 µg/mL; in assay [3], 0.2 µg/mL; in assay [4], 0.1 µg/mL; in assay [5], under 0.1 µg/mL; in assay [6] it was under 0.1 µg/mL. The MIC in assay [7] and in assay [8] was 0.1 µg/mL each time.
Take `N[C@H]1CCN(c2cc3c(cc2F)c(=O)c(C(=O)O)cn3[C@@H]2C[C@@H]2F)C1` (relative stereo) [Compound 9a, 7-[3-(S)-Amino-1-pyrrolidinyl]-6-fluoro-1-(1,2-cis-2-fluorocyclopropyl)-4-oxo-1,4-dihydroquinoline-3-carboxylic acid]: the “Antimicrobial activity (MIC)” value in assay [1] was 0.10 µg/mL; in assay [2] it was under 0.1 µg/mL; in assay [3], 0.39 µg/mL; in assay [4] it was 0.10 µg/mL; in assay [5], 0.10 µg/mL; in assay [6], 0.39 µg/mL. For the same compound, the results for the “Antimicrobial activity (MIC)” value in assay [7] and in assay [8] were 0.20 µg/mL and 1.57 µg/mL, respectively.
“(−)-5-Amino-7-[3-(S)-amino-1-pyrrolidinyl]-6,8-difluoro-1-(1,2-cis-2-fluoro-1-cyclopropyl)-4-oxo-1,4-dihydroquinoline-3-carboxylic acid [Compound 18a]”: the “Antimicrobial activity (MIC)” value in assay [1], in assay [2], in assay [3], in assay [4], in assay [5] and in assay [6] was under 0.1 µg/mL each time. The “Antimicrobial activity (MIC)” value in assay [7] is under 0.1 µg/mL; in assay [8] it was 0.20 µg/mL.
Turning to `NC1CN(c2c(F)cc3c(=O)c(C(=O)O)cn(C4CC4F)c3c2Cl)CC12CC2` (single isomer, unassigned) [Compound 26ab], the “Antimicrobial activity (MIC)” value in assay [1] was under 0.1 µg/mL; in assay [2], under 0.1 µg/mL; in assay [3] it was 0.20 µg/mL; in assay [4] it was under 0.1 µg/mL; in assay [5], under 0.1 µg/mL; in assay [6], 0.10 µg/mL. Besides, the “Antimicrobial activity (MIC)” value in assay [7] is under 0.1 µg/mL; in assay [8], 0.20 µg/mL.
On to “(−)-7-[3-(S)-Amino-1-pyrrolidinyl]-8-chloro-6-fluoro-1-(1,2-cis-2-fluoro-1-cyclopropyl)-4-oxo-1,4-dihydroquinoline-3-carboxylic acid [Compound 13b]”, for which the “Antimicrobial activity (MIC)” value in assay [1], in assay [2], in assay [3], in assay [4], in assay [5] and in assay [6] was under 0.1 µg/mL each time. The “Antimicrobial activity (MIC)” value in assay [7] was under 0.1 µg/mL; in assay [8], 0.20 µg/mL.
With `NC1CN(c2c(F)cc3c(=O)c(C(=O)O)cn([C@@H]4C[C@@H]4F)c3c2Cl)CC12CC2` (relative stereo) [Compound 26bb, (−)-7-(7-Amino-5-azaspiro[2.4]heptan-5-yl)-8-chloro-6-fluoro-1-(1,2-cis-2-fluoro-1-cylcopropyl)-1,4-dihydro-4-oxoquinoline-3-carboxylic acid], the “Antimicrobial activity (MIC)” value in assay [1], in assay [2], in assay [3], in assay [4], in assay [5] and in assay [6] was under 0.1 µg/mL in each case. The figures for the “Antimicrobial activity (MIC)” value in assay [7] and in assay [8] were under 0.1 µg/mL and 0.20 µg/mL, respectively.
